Test results: ChEMBL document CHEMBL3392979, “Discovery and SAR study of c-Met kinase inhibitors bearing an 3-amino-benzo[d]isoxazole or 3-aminoindazole scaffold” (Bioorg Med Chem, 2015)

How the values were obtained:
[1] = Antiproliferative activity against human EBC1 cells after 72 hrs; details: EBC-1, 72 h
[2] = molecular target: T1, Vascular endothelial growth factor receptor 2 (Homo sapiens, UniProt P35968); test: Inhibition of purified VEGFR2 (unknown origin) after 60 mins by ELISA
[3] = molecular target: T2, Hepatocyte growth factor receptor (Homo sapiens, UniProt P08581); test: Inhibition of purified recombinant c-MET (unknown origin) using poly (Glu, Tyr) substrate after 60 mins by ELISA
[4] = molecular target: Insulin-like growth factor 1 receptor (Homo sapiens) (UniProt P08069); test: Inhibition of purified IGF1R (unknown origin) at 1 uM after 60 mins by ELISA
[5] = molecular target: Receptor tyrosine-protein kinase erbB-4 (Homo sapiens) (UniProt Q15303); test: Inhibition of purified ErbB4 (unknown origin) at 1 uM after 60 mins by ELISA
[6] = molecular target: Vascular endothelial growth factor receptor 1 (Homo sapiens) (UniProt P17948); test: Inhibition of purified Flt1 (unknown origin) at 1 uM after 60 mins by ELISA
[7] = molecular target: Proto-oncogene tyrosine-protein kinase Src (Homo sapiens) (UniProt P12931); test: Inhibition of purified c-Src (unknown origin) at 1 uM after 60 mins by ELISA
[8] = molecular target: Platelet-derived growth factor receptor beta (Homo sapiens) (UniProt P09619); test: Inhibition of purified PDGFRbeta (unknown origin) at 1 uM after 60 mins by ELISA
[9] = molecular target: ALK tyrosine kinase receptor (Homo sapiens) (UniProt Q9UM73); test: Inhibition of purified ALK (unknown origin) at 0.1 uM after 60 mins by ELISA
[10] = molecular target: Tyrosine-protein kinase ABL1 (Homo sapiens) (UniProt P00519); test: Inhibition of purified ABL (unknown origin) at 1 uM after 60 mins by ELISA
[11] = molecular target: T1, Vascular endothelial growth factor receptor 2; test: Inhibition of purified VEGFR2 (unknown origin) at 0.1 uM after 60 mins by ELISA
[12] = molecular target: Proto-oncogene tyrosine-protein kinase receptor Ret (Homo sapiens) (UniProt P07949); test: Inhibition of purified RET (unknown origin) at 1 uM after 60 mins by ELISA
[13] = molecular target: Epidermal growth factor receptor (Homo sapiens) (UniProt P00533); test: Inhibition of purified EGFR (unknown origin) at 1 uM after 60 mins by ELISA
[14] = molecular target: T2, Hepatocyte growth factor receptor; test: Inhibition of purified c-MET (unknown origin) at 0.01 uM after 60 mins by ELISA
[15] = molecular target: Receptor tyrosine-protein kinase erbB-2 (Homo sapiens) (UniProt P04626); test: Inhibition of purified ErbB2 (unknown origin) at 1 uM after 60 mins by ELISA
[16] = molecular target: Ephrin type-A receptor 2 (Homo sapiens) (UniProt P29317); test: Inhibition of purified EPH-A2 (unknown origin) at 1 uM after 60 mins by ELISA
[17] = molecular target: T1, Vascular endothelial growth factor receptor 2; test: Inhibition of purified VEGFR2 (unknown origin) at 0.01 uM after 60 mins by ELISA
[18] = molecular target: Platelet-derived growth factor receptor alpha (Homo sapiens) (UniProt P16234); test: Inhibition of purified PDGFRalpha (unknown origin) at 1 uM after 60 mins by ELISA
[19] = molecular target: T1, Vascular endothelial growth factor receptor 2; test: Inhibition of purified VEGFR2 (unknown origin) at 1 uM after 60 mins by ELISA
[20] = molecular target: ALK tyrosine kinase receptor (Homo sapiens) (UniProt Q9UM73); test: Inhibition of purified ALK (unknown origin) at 1 uM after 60 mins by ELISA
[21] = molecular target: T2, Hepatocyte growth factor receptor; test: Inhibition of purified c-MET (unknown origin) at 0.1 uM after 60 mins by ELISA
[22] = molecular target: Fibroblast growth factor receptor 1 (Homo sapiens) (UniProt P11362); test: Inhibition of purified FGFR1 (unknown origin) at 1 uM after 60 mins by ELISA
[23] = molecular target: T2, Hepatocyte growth factor receptor; test: Inhibition of purified c-MET (unknown origin) at 1 uM after 60 mins by ELISA

Row | Compound | IC50 [1] | IC50 [3] | also measured
1 | Cc1cc(NC(=O)C2(C(=O)Nc3ccc(F)cc3)CC2)ccc1-c1cccc2[nH]nc(N)c12 | 1000 nM |  | 
2 | Nc1noc2cccc(-c3ccc(NC(=O)C4(C(=O)Nc5ccc(F)cc5)CC4)cc3F)c12 | 900 nM |  | 
3 | CN1CCN(Cc2cc(NC(=O)C3(C(=O)Nc4ccc(-c5cccc6[nH]nc(N)c56)cc4)CC3)ccc2Cl)CC1 | > 10000 nM |  | 
4 | Nc1n[nH]c2cccc(-c3ccc(NC(=O)C4(C(=O)Nc5ccc(Cl)cc5)CC4)cc3F)c12 | 990 nM |  | 
5 | Nc1noc2cccc(-c3ccc(NC(=O)CC(=O)Nc4ccc(F)cc4)cc3)c12 | > 10000 nM |  | 
6 | Nc1noc2cccc(-c3ccc(NC(=O)C4(C(=O)Nc5ccc(F)c(F)c5)CC4)cc3)c12 | > 10000 nM |  | 
7 | Nc1noc2cccc(-c3ccc(NC(=O)C4(C(=O)Nc5ccc(F)cc5)CC4)cc3)c12 | 1200 nM |  | IC50 [2]: > 1000 nM
8 | Cn1cc(-c2ccc(NC(=O)C3(C(=O)Nc4ccc(-c5cccc6onc(N)c56)cc4)CC3)cc2)cn1 |  | > 1000 nM | 
9 | Nc1n[nH]c2cccc(-c3ccc(NC(=O)C4(C(=O)Nc5ccc(F)cc5)CC4)c(F)c3)c12 | 510 nM |  | 
10 | CN(C)Cc1cc(NC(=O)C2(C(=O)Nc3ccc(F)cc3)CC2)ccc1-c1cccc2[nH]nc(N)c12 |  | > 1000 nM | 
11 | Nc1noc2cccc(-c3ccc(NC(=O)C4(C(=O)Nc5ccc(Cl)cc5)CC4)cc3)c12 | 6700 nM |  | 
12 | COc1cc(NC(=O)C2(C(=O)Nc3ccc(-c4cccc5onc(N)c45)cc3)CC2)cc(OC)c1OC |  | > 1000 nM | 
13 | Cc1ccc(NC(=O)C2(C(=O)Nc3ccc(-c4cccc5onc(N)c45)cc3)CC2)cc1 | 6300 nM |  | 
14 | Cn1nccc1-c1ccc(NC(=O)C2(C(=O)Nc3ccc(-c4cccc5onc(N)c45)cc3)CC2)cc1 |  | > 1000 nM | 
15 | Nc1n[nH]c2cccc(-c3ccc(NC(=O)C4(C(=O)Nc5ccc(F)cc5)CC4)cc3F)c12 | 180 nM | 1.8 nM | inhibition [4]: 45.3%; inhibition [5]: 3%; inhibition [6]: 40.8%; inhibition [7]: 11.8%; inhibition [8]: 59.3%; inhibition [9]: 36.2%; inhibition [10]: 9.8%; inhibition [11]: 89.9%; inhibition [12]: 66.1%; inhibition [13]: 2.5%; inhibition [14]: 69.7%; inhibition [15]: 0%; inhibition [16]: 38.4%; inhibition [17]: 45.8%; inhibition [18]: 62.5%; inhibition [19]: 100%; inhibition [20]: 64.9%; inhibition [21]: 100%; inhibition [22]: 21.5%; inhibition [23]: 100%
16 | CC(C)C(C(=O)Nc1ccc(F)cc1)C(=O)Nc1ccc(-c2cccc3onc(N)c23)cc1 (stereo unspecified) |  | > 1000 nM | 
17 | Nc1n[nH]c2cccc(-c3ccc(NC(=O)C4(C(=O)Nc5ccc(F)cc5F)CC4)cc3)c12 | 990 nM |  | 
18 | Nc1noc2cccc(-c3ccc(NC(=O)C4(C(=O)Nc5ccc(-c6cnn(C7CCOCC7)c6)cc5)CC4)cc3)c12 |  | > 1000 nM | 
19 | Nc1n[nH]c2cccc(-c3ccc(NC(=O)C4(C(=O)Nc5ccc(F)cc5)CC4)cc3)c12 | 820 nM |  | 
20 | Nc1n[nH]c2cccc(-c3ccc(NC(=O)C4(C(=O)Nc5ccc(F)cc5)CC4)c4ccccc34)c12 |  | > 1000 nM | 
21 | CC(C)(C(=O)Nc1ccc(F)cc1)C(=O)Nc1ccc(-c2cccc3onc(N)c23)cc1 |  | > 1000 nM | 
22 | C[C@@H](Oc1cc(-c2cnn(C3CCNCC3)c2)cnc1N)c1c(Cl)ccc(F)c1Cl [CRIZOTINIB] | 21 nM |  | 
23 | COc1cc(NC(=O)C2(C(=O)Nc3ccc(F)cc3)CC2)ccc1-c1cccc2[nH]nc(N)c12 |  | > 1000 nM | 
24 | Cc1ccc(NC(=O)C2(C(=O)Nc3ccc(-c4cccc5[nH]nc(N)c45)c(F)c3)CC2)cc1 | 910 nM |  | 
25 | CN1CCN(c2ccc(NC(=O)C3(C(=O)Nc4ccc(-c5cccc6onc(N)c56)cc4)CC3)cc2F)CC1 |  | > 1000 nM | 
26 | CC(=O)c1ccc(-c2ccc(NC(=O)C3(C(=O)Nc4ccc(-c5cccc6onc(N)c56)cc4)CC3)cc2)s1 |  | > 1000 nM | 
27 | Nc1noc2cccc(-c3ccc(NC(=O)C4(C(=O)Nc5ccc(F)cc5F)CC4)cc3)c12 | > 10000 nM |  | 
28 | Nc1noc2cccc(-c3ccc(NC(=O)C4(C(=O)Nc5ccc(-c6cnn(C7CCNCC7)c6)cc5)CC4)cc3)c12 |  | > 1000 nM | 
29 | Nc1noc2cccc(-c3ccc(NC(=O)C4(C(=O)Nc5cccc(F)c5)CC4)cc3)c12 |  | > 1000 nM | 
